Measurements reported in ChEMBL document CHEMBL4152208, “Synthesis and structure-activity relationships of quinolinone and quinoline-based P2X7 receptor antagonists and their anti-sphere formation activities in glioblastoma cells” (Eur J Med Chem, 2018).
Activity calls are given as the source filed them. The rule behind the calls is not given here.

Key:
Assay type in all cases: cell-based
[1] = target: T1, P2X purinoceptor 7 (Homo sapiens) (UniProt Q99572); experiment: Antagonist activity at human P2X7 receptor expressed in HEK293 cells assessed as inhibition of BzATP-induced EtBr uptake at 10 uM after 2 hrs by fluorescence assay relative to control
T1 sequence (whole entry): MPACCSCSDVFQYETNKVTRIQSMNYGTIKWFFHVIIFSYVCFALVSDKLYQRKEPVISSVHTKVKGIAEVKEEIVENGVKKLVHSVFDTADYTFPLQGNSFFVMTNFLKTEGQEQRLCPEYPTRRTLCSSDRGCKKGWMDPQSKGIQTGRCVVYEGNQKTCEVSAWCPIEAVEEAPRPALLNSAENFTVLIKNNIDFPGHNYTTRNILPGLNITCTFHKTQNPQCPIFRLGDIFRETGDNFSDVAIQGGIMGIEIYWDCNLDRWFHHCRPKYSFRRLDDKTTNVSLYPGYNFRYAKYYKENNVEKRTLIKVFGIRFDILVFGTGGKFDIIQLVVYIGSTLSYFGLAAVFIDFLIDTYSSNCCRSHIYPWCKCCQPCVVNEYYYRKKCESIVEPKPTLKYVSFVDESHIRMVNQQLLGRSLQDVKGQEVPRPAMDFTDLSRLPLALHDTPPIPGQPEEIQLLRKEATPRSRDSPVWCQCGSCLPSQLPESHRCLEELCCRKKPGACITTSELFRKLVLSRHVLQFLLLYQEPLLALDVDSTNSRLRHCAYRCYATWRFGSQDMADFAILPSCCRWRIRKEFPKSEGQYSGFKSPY

[2] = target: T1, P2X purinoceptor 7 (Homo sapiens); experiment: Antagonist activity at human P2X7 receptor expressed in HEK293 cells assessed as inhibition of BzATP-induced EtBr uptake at 1 uM after 2 hrs by fluorescence assay relative to control
[3] = target: T2, P2X purinoceptor 7 (Homo sapiens, UniProt Q99572); experiment: Antagonist activity at P2X7 in LPS/IFN gamma differentiated human THP-1 cells assessed as inhibition of BzATP-induced IL-1beta release preincubated for 30 mins followed by BzATP stimulation for 30 mins by ELISA
T2 sequence (Q99572 whole entry): T1 sequence (whole entry)

[4] = Cytotoxicity against HEK293 cells expressing human P2X7 receptor assessed as cell survival at 10 uM by MTT assay relative to control; settings: read-out: Survival
[5] = target: T2, P2X purinoceptor 7; experiment: Antagonist activity at human P2X7 receptor expressed in HEK293 cells assessed as inhibition of BzATP-induced EtBr uptake after 2 hrs by fluorescence assay relative to control
[6] = target: T1, P2X purinoceptor 7 (Homo sapiens); experiment: Antagonist activity at P2X7 in LPS/IFN gamma differentiated human THP-1 cells assessed as inhibition of BzATP-induced IL-1beta release at 10 uM preincubated for 30 mins followed by BzATP stimulation for 30 mins by ELISA

Row | SMILES | inhibition [1] | inhibition [2] | also measured
1 | COc1ccc(Cn2c(=O)c(C(=O)NCCCc3ccccc3)cc3c(NC(=O)Cc4ccc(Cl)cc4)cccc32)cc1 | inactive |  | 
2 | O=C(CC12CC3CC(CC(C3)C1)C2)Nc1cccc2nc(-c3ccccc3)ccc12 | 86% | 78% | IC50 [3]: 434 nM; viability at 10 µM [4]: 98%; IC50 [5]: 447 nM
3 | COc1ccc(Cn2c(=O)c(C(=O)NCCc3ccc(Cl)cc3)cc3c(NC(=O)Cc4ccccc4)cccc32)cc1 | inactive |  | 
4 | COc1ccc(CC(=O)Nc2cccc3c2cc(C(=O)NCCc2ccc(C)cc2)c(=O)n3Cc2ccc(OC)cc2)cc1 | inactive |  | 
5 | O=C(CC12CC3CC(CC(C3)C1)C2)Nc1cccc2nc(-c3ccccc3O)ccc12 | 69% | 41% | 
6 | COc1ccc(Cn2c(=O)c(C(=O)N(C)C)cc3c(NC(=O)C45CC6CC(CC(C6)C4)C5)cccc32)cc1 | 54% | 14% | 
7 | COC(=O)c1cc2c(NC(=O)C34CC5CC(CC(C5)C3)C4)cccc2n(Cc2ccc(C#N)cc2)c1=O | inactive |  | 
8 | COc1ccc(Cn2c(=O)c(C(=O)NCCc3ccc(C)cc3)cc3c(NC(=O)Cc4ccccc4)cccc32)cc1 | 13% |  | 
9 | COC(=O)c1cc2c(NC(=O)C34CC5CC(CC(C5)C3)C4)cccc2n(Cc2ccc(C)cc2)c1=O | 45% | 30% | 
10 | COc1ccc(Cn2c(=O)c(C(=O)NCCc3ccc(Cl)cc3)cc3c(NC(=O)COc4cccc(Cl)c4)cccc32)cc1 | inactive |  | 
11 | COc1ccc(Cn2c(=O)c(C(=O)O)cc3c(N)cccc32)cc1 | inactive |  | 
12 | COc1ccc(CC(=O)Nc2cccc3c2cc(C(=O)NCCc2ccccc2)c(=O)n3Cc2ccc(OC)cc2)cc1 | 8% |  | 
13 | COC(=O)c1cc2c(NC(=O)CC34CC5CC(CC(C5)C3)C4)cccc2nc1Cl | 43% | 27% | 
14 | COC(=O)c1cc2c(NC(=O)C34CC5CC(CC(C5)C3)C4)cccc2n(Cc2ccc(Cl)cc2)c1=O | 88% | 78% | IC50 [5]: 723 nM
15 | COC(=O)c1cc2c(NC(=O)C3CCCCC3)cccc2n(Cc2ccc(OC)cc2)c1=O | 88% | 67% | IC50 [5]: 810 nM
16 | COc1ccc(Cn2c(=O)c(C(=O)NCCc3ccc(Cl)cc3)cc3c(N)cccc32)cc1 | inactive |  | 
17 | COc1ccc(Cn2c(=O)c(C(=O)NCCc3ccccc3)cc3c(N)cccc32)cc1 | inactive |  | 
18 | CN([C@@H](Cc1ccc(OS(=O)(=O)c2cccc3cnccc23)cc1)C(=O)N1CCN(c2ccccc2)CC1)S(=O)(=O)c1cccc2cnccc12 |  | 79% | inhibition [6]: 96%; viability at 10 µM [4]: 93%
19 | COc1ccc(Cn2c(=O)ccc3c(NC(=O)C45CC6CC(CC(C6)C4)C5)cccc32)cc1 | 43% | 29% | 
20 | COC(=O)c1cc2c(NC(=O)C34CC5CC(CC(C5)C3)C4)cccc2n(Cc2ccc(Br)cc2)c1=O | 80% | 65% | IC50 [5]: 810 nM

Row | SMILES | inhibition [1] | inhibition [2] | also measured
21 | COC(=O)c1cc2c(NC(=O)CCC3CCCC3)cccc2n(Cc2ccc(OC)cc2)c1=O | 45% | 15% | 
22 | COC(=O)c1cc2c(NC(=O)C34CC5CC(CC(C5)C3)C4)cccc2n(Cc2ccccc2)c1=O | inactive |  | 
23 | COC(=O)c1cc2c(NC(=O)c3ccccc3)cccc2n(Cc2ccc(OC)cc2)c1=O | inactive |  | 
24 | COc1ccc(Cn2c(=O)c(C(=O)NCCCc3ccccc3)cc3c(NC(=O)Cc4ccccc4)cccc32)cc1 | inactive |  | 
25 | O=C(CC1CCCCC1)Nc1cccc2nc(Cl)ccc12 | 95% | 90% | IC50 [3]: 335 nM; viability at 10 µM [4]: 92%; IC50 [5]: 385 nM
26 | COc1ccc(Cn2c(=O)c(C(=O)NCCc3ccc4c(c3)OCO4)cc3c(N)cccc32)cc1 | inactive |  | 
27 | O=C(CC12CC3CC(CC(C3)C1)C2)Nc1cccc2nc(-c3cccc(O)c3)ccc12 | 66% | 36% | 
28 | CCCC(=O)Nc1cccc2c1cc(C(=O)NCCc1ccc(OC)cc1)c(=O)n2Cc1ccc(OC)cc1 | inactive |  | 
29 | COc1ccc(Cn2c(=O)c(C(=O)NCCc3ccc(C)cc3)cc3c(NC(=O)COc4cccc(Cl)c4)cccc32)cc1 | inactive |  | 
30 | O=C(Nc1cccc2nc(Cl)ccc12)C12CC3CC(CC(C3)C1)C2 | 51% | 11% | 
31 | O=C(CC12CC3CC(CC(C3)C1)C2)Nc1cccc2nc(-c3ccc([N+](=O)[O-])cc3)ccc12 | 94% | 79% | IC50 [3]: 113 nM; viability at 10 µM [4]: 93%; IC50 [5]: 73 nM
32 | COc1ccc(Cn2c(=O)c(C(=O)NCCc3ccc4c(c3)OCO4)cc3c(NC(=O)Cc4ccc(Cl)cc4)cccc32)cc1 | inactive |  | 
33 | COc1ccc(Cn2c(=O)c(C(=O)NCCc3ccc(C)cc3)cc3c(N)cccc32)cc1 | 4% |  | 
34 | COC(=O)c1cc2c(NC(=O)Cc3ccccc3)cccc2n(Cc2ccc(OC)cc2)c1=O | 43% | 24% | 
35 | COC(=O)c1cc2c(NC(=O)CC3CCCCC3)cccc2n(Cc2ccc(OC)cc2)c1=O | 86% | 63% | IC50 [5]: 875 nM
36 | COc1ccc(Cn2c(=O)c(C(=O)OC(C)C)cc3c(NC(=O)C45CC6CC(CC(C6)C4)C5)cccc32)cc1 | 77% | 47% | 
37 | COc1ccc(CCNC(=O)c2cc3c(NC(=O)COc4ccc(Cl)cc4)cccc3n(Cc3ccc(OC)cc3)c2=O)cc1 | inactive |  | 
38 | COC(=O)c1cc2c(NC(=O)CCc3ccccc3)cccc2n(Cc2ccc(OC)cc2)c1=O | 56% | 36% | 
39 | CCc1ccc(Cn2c(=O)c(C(=O)OC)cc3c(NC(=O)C45CC6CC(CC(C6)C4)C5)cccc32)cc1 | 38% | 28% | 
40 | COc1ccc(Cn2c(=O)c(C(=O)O)cc3c(NC(=O)C45CC6CC(CC(C6)C4)C5)cccc32)cc1 | 41% | 2% | 

Row | SMILES | inhibition [1] | inhibition [2] | also measured
41 | COc1ccc(Cn2c(=O)c(C(=O)NCCc3ccc(O)c(OC)c3)cc3c(N)cccc32)cc1 | 5% |  | 
42 | COC(=O)c1cc2c(NC(=O)CCC3CCCCC3)cccc2n(Cc2ccc(OC)cc2)c1=O | 57% | 20% | 
43 | COc1ccc(Cn2c(=O)c(C(=O)NCCc3ccc(C)cc3)cc3c(NC(=O)COc4ccc(Cl)cc4)cccc32)cc1 | inactive |  | 
44 | COc1ccc(Cn2c(=O)c(C(=O)NCCc3ccc(C)cc3)cc3c(NC(=O)CCC4CCCC4)cccc32)cc1 | inactive |  | 
45 | COc1ccc(Cn2c(=O)c(C(=O)NCCc3ccccc3)cc3c(NC(=O)CCc4ccccc4)cccc32)cc1 | inactive |  | 
46 | COC(=O)c1cc2c(NC(=O)C34CC5CC(CC(C5)C3)C4)cccc2n(Cc2cccc(OC)c2)c1=O | 55% | 35% | 
47 | CNC(=O)c1cc2c(NC(=O)C34CC5CC(CC(C5)C3)C4)cccc2n(Cc2ccc(OC)cc2)c1=O | 42% | 6% | 
48 | COc1ccc(Cn2c(=O)c(C(=O)NCCCc3ccccc3)cc3c(N)cccc32)cc1 | inactive |  | 
49 | CCc1ccc(CCNC(=O)c2cc3c(N)cccc3n(Cc3ccc(OC)cc3)c2=O)cc1 | inactive |  | 
50 | O=C(CC12CC3CC(CC(C3)C1)C2)Nc1cccc2nc(-c3ccc(Cl)cc3)ccc12 | 90% | 89% | IC50 [3]: 178 nM; viability at 10 µM [4]: 98%; IC50 [5]: 123 nM
51 | COc1ccc(Cn2c(=O)c(C(=O)NCCCc3ccccc3)cc3c(NC(=O)CCc4ccccc4)cccc32)cc1 | inactive |  | 
52 | COc1ccc(Cn2c(=O)c(C(=O)NCCc3ccc(C)cc3)cc3c(NC(=O)CCc4ccccc4)cccc32)cc1 | inactive |  | 
53 | COC(=O)c1cc2c(NC(=O)CC34CC5CC(CC(C5)C3)C4)cccc2n(Cc2ccc(OC)cc2)c1=O | 76% | 65% | IC50 [5]: 861 nM
54 | COc1ccc(CCNC(=O)c2cc3c(NC(=O)CCc4ccccc4)cccc3n(Cc3ccc(OC)cc3)c2=O)cc1 | 7% |  | 
55 | CCc1ccc(CCNC(=O)c2cc3c(NC(=O)COc4ccc(Cl)cc4)cccc3n(Cc3ccc(OC)cc3)c2=O)cc1 | inactive |  | 
56 | COC(=O)c1cc2c(NC(=O)C34CC5CC(CC(C5)C3)C4)cccc2nc1Cl | 21% | inactive | 
57 | COC(=O)c1cc2c(N)cccc2n(Cc2ccc(OC)cc2)c1=O | inactive |  | 
58 | COC(=O)c1cc2c(NC(=O)C34CC5CC(CC(C5)C3)C4)cccc2n(Cc2ccc(OC(F)(F)F)cc2)c1=O | 68% | 48% | 
59 | CCCC(=O)Nc1cccc2c1cc(C(=O)NCCc1ccccc1)c(=O)n2Cc1ccc(OC)cc1 | inactive |  | 
